Results from patent US7229621B2, “Method to enhance the immunogenicity of an antigen” (Torrey Pines Institute for Molecular Studies, priority 1998, dated 2007).

How the values were obtained:
[1] = test system: Langerhans cells (immature dendritic cells); assay: FITC screening assay: Langerhans/dendritic cell migration to draining inguinal lymph node after topical FITC in acetone plus migration inducer; assay type: in vivo, C57BL/6 mice; conditions: for effect on FITC+ and total dendritic cell migration into the lymph node: topical FITC in acetone plus agent on shaved abdominal skin, 2 days after treatment (FIG. 1); for Amt. Antigen/DC (mean fluorescence intensity of the dendritic cells) / Total DC (FITC+ plus FITC- dendritic cells per lymph node) / Antigen^+ DC (FITC+ MHC class II^Hi cells per lymph node): FITC 5 mg/ml in 50:50 acetone and test agent; for Amt. Antigen/DC (mean fluorescence intensity of the dendritic cells) / Total DC (FITC+ plus FITC- dendritic cells per lymph node): 48 hrs later; for Antigen^+ DC (FITC+ MHC class II^Hi cells per lymph node): inguinal lymph nodes 48 hrs later
Excerpt: Fluorescein isothiocyanate (FITC) has been used extensively by the inventor and others, to characterize Langerhans cell migration. FITC is a small (389 Da) non-peptide, largely lipophilic molecule, capable of crossing the stratum corneum. The antigenicity of FITC is due to the reactivity of its isothiocyanate group (—N═C═S) with free amino groups, permitting it to be covalently bound to proteins and/or peptides. C57BL/6 mice received the following treatments: 1) none; 2) shaving of the abdominal skin only; or shaving of the abdominal skin followed by either 3) topical administration of FITC in acetone; 4) topical administration of FITC in acetone and olive oil; 5) topical administration of FITC in acetone and DMSO diluted in phosphate buffered saline (PBS); or 6) topical administration of FITC in acetone and dibutyl phthalate. The draining inguinal lymph nodes were then examined for immigrant dendritic cells by immunofluorescent flow cytometry each day thereafter. Migratory Langerhans cells were identified by the presence of FITC and co-expression of high MHC class II molecules or by co-expression of the DEC 205 ligand for the monoclonal antibody, NLDC-145. Dendritic cell residents of the lymph nodes could be differentiated by their high expression of MHC class II molecules but lack of FITC, or by their lack of FITC but co-expression of the ligand for the dendritic cell-specific monoclonal antibody, 33D1. The uptake of FITC and the Langerhans cell response to migratory signals were observable in the draining lymph node as early as six hours after topical administration. However, 48–72 hours was required for maximal immigration of FITC-bearing Langerhans cells into the lymph node. FIG. 1 illustrates the effect of various treatment regimens on the total and FITC+ dendritic cells 2 days after treatment. […] Thus, dibutyl phthalate was a very potent migration inducer.
Compounds which are useful as inducers of immature dendritic cell migration may be screened using the standard FITC methods described for the data presented in FIGS. 1—3. C57BL6 mice are shaved on their abdomens and painted with 100–200 μl of the test solution, containing 5 mg/ml FITC in a 50/50 (v/v) mixture of acetone and the migration inducer (e.g. dibutyl phthalate). After 2 days, the draining inguinal lymph nodes are removed and the total number of dendritic cells (both FITC+ and FITC−) is determined by flow cytometry and MHC class II immunofluorescence or other markers specific for dendritic cells.
The antigen employed was FITC and the procedure was identical to that used for the experiments depicted in FIG. 1. Namely, FITC at 5 mg/ml was dissolved in a 50:50 solution of acetone and the test agents for migration induction. The test agents used in this experiment were: dibutylfumarate (Agent #1); diisooctylmaleate (Agent #2); and dibutyl-D-tartarate (Agent #3). The inguinal lymph nodes were examined 48 hrs later for the presence of FITC+ and FITC-dendritic cells as detailed previously.
The antigen used was FITC, which was applied topically to the shaved abdominal skin of C57BL/6 mice at 5 mg/ml in a 50:50 solution of dibutyl phthalate and acetone. Each of the applications was identical, with half of the mice in each group receiving the first application only (none) and half receiving the first application followed by a second application at the specified interval (14 days or 21 days) after the first application. The inguinal lymph node cells were examined by flow cytometry for FITC+ dendritic cells, as detailed previously, 48 hrs after each treatment.

E.G7-OVA tumor cells = assay: E.G7-OVA tumor growth after immunization with tumor antigen and migration inducer; assay type: in vivo, C57BL/6 mice; conditions: 50 μl of 1.25 mM OVA in HBSS injected, DBP in acetone topically an hour later; tumor inoculation one month later (FIG. 12)
Excerpt: The tumor cell, E.G7-OVA, is the C57BL/6 EL4 thymoma transfected with the complete gene for chicken ovalbumin (OVA). The transfected cell line expresses OVA protein, which is also processed naturally by E.G7-OVA cells into an eight amino acid peptide, OVA257-264, with the sequence […]. […] Based on the positive results using FITC, the inventors followed a similar protocol in an attempt to induce immunity to the E.G7-OVA tumor by topical administration of the well-characterized, synthetic […] tumor-associated peptide.
C57BL/6 mice were treated as follows: 1) shaving alone; 2) topical administration of acetone and dibutyl phthalate; 3) topical administration of […] (240 μg/ml) in DMSO diluted in PBS, followed in 5 hours by acetone and dibutyl phthalate; and 4) topical administration of […] (240 μg/ml) in acetone and dibutyl phthalate. All mice were subsequently injected subcutaneously with 5×10^5 E.G7-OVA cells (5-times the minimal tumorogenic dose). Tumor-specific immunity was monitored by measuring the size of the developing tumor.
The mucous membranes lack the tough barrier posed by the stratum corneum of the skin. […] The EL4 parent tumor cell line, lacking chicken ovalbumin, was used as a negative control; no immunity against the EL4 tumor cells was seen. Thus, the inventors' hypothesis regarding penetration of the stratum corneum was confirmed; the […] peptide was not effectively reaching the immature dendritic cells, known as Langerhans cells, underlying the stratum corneum.
To enhance the effectiveness of cutaneous topical administration of peptide, […] was dissolved in DMSO and applied to the skin without further dilution. Dibutyl phthalate in a 50:50 mixture with acetone was applied to the same site 5 hr later. All mice were subsequently injected subcutaneously with 5×10^5 E.G7-OVA cells. The results shown in FIG. 6 indicate that the peptide in concentrated DMSO was apparently able to traverse the stratum corneum, effectively gaining access to the epidermal Langerhans cells. […] Thus, the tumor-specific peptide, […], in concentrated DMSO, penetrated the stratum corneum in sufficient concentration to be incorporated into the MHC class I molecule K^b on epidermal Langerhans cells, and in the presence of the migration inducer, dibutyl phthalate, was effectively presented to CD8+ CTLs in the draining lymph nodes.
To confirm the immunogenicity of the disclosed treatment, groups of 10 C57BL/6 mice were injected with 50 μl of 1.25 mM OVA protein in HBSS, with HBSS alone, or with nothing. This was followed an hour later by topical application of DBP in acetone or with nothing. One month later, the mice were inoculated subcutaneously with 5×10^5 EL4 tumor cells or with 5×10^5 E.G7-OVA tumor cells and subsequent tumor growth was measured.

[2] = test system: dendritic cells in draining lymph node; assay: Antigen-bearing dendritic cells in lymph nodes after injection of soluble protein or peptide with or without topical migration inducer; assay type: in vivo, mice
Protocol: The injections were followed 2 hours later by topical application of dibutyl phthalate and acetone to the abdominal skin. The antigen-bearing dendritic cells that had migrated to the draining lymph node two days later were analyzed as described above and are shown in the upper right quadrant of each dot plot.
This was followed 2 hrs later by: A) no further treatment, or B) topical application of dibutyl phthalate and acetone to the abdominal skin. The antigen-bearing dendritic cells that had migrated to the draining lymph node two days later are shown in the upper right quadrant of each dot plot.
As stated previously, whether mature antigen-bearing dendritic cells will be encountered by and activate naive T cells in the lymph node is likely to depend not only on the number of antigen-bearing dendritic cells that enter the node, but also on the density of MHC:peptide complexes expressed on their membranes.

[3] = test system: dendritic cells in draining lymph node; assay: Antigen-bearing dendritic cells in lymph node after aqueous antigen applied to skin with DBP and acetone; assay type: in vivo; conditions: aqueous solution applied to the skin with topical DBP and acetone (data not shown)
Excerpt: Similarly, when an aqueous solution of a […] peptide or OVA protein antigen was applied to the skin along with topical application of the migration inducer, DBP and acetone, no detectable antigen-bearing (i.e., K^b:[…] positive) dendritic cells appeared in the draining lymph node (data not shown).

[4] = 1st treatment day 1, 2nd none, assay day 16
[5] = 1st treatment day 1, 2nd none, assay day 23
[6] = 1st treatment day 1, 2nd treatment day 14, assay day 16
[7] = 1st treatment day 1, 2nd treatment day 21, assay day 23
[8] = FITC 5 mg/ml in 50:50 dibutyl phthalate and acetone, 1st treatment day 1, 2nd none, assay day 2
[9] = 20 μl of 0.5 mM in HBSS injected, dibutyl phthalate and acetone 2 hours later, two days later

**Q.** How did the “effect on FITC+ and total dendritic cell migration into the lymph node” value [1] turn out when `C[S+](C)[O-]` [DMSO, dimethylsulfoxide] was run?
**A.** no enhancement

**Q.** `CCCCOC(=O)[C@@H](O)[C@H](O)C(=O)OCCCC` [DBT, dibutyl-D-tartarate] was tested. Which “Amt. Antigen/DC (mean fluorescence intensity of the dendritic cells)” value [1] did it give?
**A.** 364 arbitrary units

**Q.** What about the “Total DC (FITC+ plus FITC- dendritic cells per lymph node)” value [1] of the same molecule?
**A.** 29,050 cells per lymph node

**Q.** What about the “Antigen^+ DC (FITC+ MHC class II^Hi cells per lymph node)” value [1] of the same molecule?
**A.** 14,175 cells per lymph node

**Q.** `CCCCOC(=O)c1ccccc1C(=O)OCCCC` [dibutyl phthalate] was tested. Which “Antigen-bearing Dendritic Cells/Node” value [1, 4] did it give?
**A.** 1,776

**Q.** And the “Cells per Lymph Node” value [1, 4]?
**A.** 4.52 × 10^6

**Q.** What about the “Antigen-bearing Dendritic Cells/Node” value [1, 5] of the same molecule?
**A.** 0

**Q.** What about the “Cells per Lymph Node” value [1, 5] of the same molecule?
**A.** 3.87 × 10^6

**Q.** What about the “Antigen-bearing Dendritic Cells/Node” value [1, 6] of the same molecule?
**A.** 99,840

**Q.** What about the “Cells per Lymph Node” value [1, 6] of the same molecule?
**A.** 1.28 × 10^7

**Q.** And the “Antigen-bearing Dendritic Cells/Node” value [1, 7]?
**A.** 49,203

**Q.** What about the “Cells per Lymph Node” value [1, 7] of the same molecule?
**A.** 6.93 × 10^6

**Q.** And the “Antigen-bearing Dendritic Cells/Node” value [1, 8]?
**A.** 64,220

**Q.** What about the “Cells per Lymph Node” value [1, 8] of the same molecule?
**A.** 6.76 × 10^6

**Q.** And the “FITC+ Langerhans cells present in the lymph node” value ([1]; by 12 hours after FITC in acetone and dibutyl phthalate (FIG. 2))?
**A.** High numbers

**Q.** And the “increase of lymph node cell population over baseline levels” value ([1]; five days after topical FITC in acetone and dibutyl phthalate (FIG. 3))?
**A.** approximately 7.2 fold

**Q.** What about the “effect on FITC+ and total dendritic cell migration into the lymph node” value [1] of the same molecule?
**A.** striking effect

**Q.** `CCCCOC(=O)/C=C/C(=O)OCCCC` [Test Agent #1, dibutylfumarate] was tested. Which “Amt. Antigen/DC (mean fluorescence intensity of the dendritic cells)” value [1] did it give?
**A.** 994 arbitrary units

**Q.** And the “Total DC (FITC+ plus FITC- dendritic cells per lymph node)” value [1]?
**A.** 10,088 cells per lymph node

**Q.** And the “Antigen^+ DC (FITC+ MHC class II^Hi cells per lymph node)” value [1]?
**A.** 4,242 cells per lymph node

**Q.** Which results are given for `CC(C)CCCCCOC(=O)/C=C\C(=O)OCCCCCC(C)C` [Test Agent #2, diisooctylmaleate]?
**A.** Amt. Antigen/DC (mean fluorescence intensity of the dendritic cells) [1]: 1032 arbitrary units; Total DC (FITC+ plus FITC- dendritic cells per lymph node) [1]: 7,927 cells per lymph node; Antigen^+ DC (FITC+ MHC class II^Hi cells per lymph node) [1]: 5,340 cells per lymph node

B1: OVA: Chicken ovalbumin, a 40 kDa protein used as prototypic experimental antigen (protein, UniProt P01012 2-386, looked up)
Ovalbumin: GSIGAASMEFCFDVFKELKVHHANENIFYCPIAIMSALAMVYLGAKDSTRTQINKVVRFDKLPGFGDSIEAQCGTSVNVHSSLRDILNQITKPNDVYSFSLASRLYAEERYPILPEYLQCVKELYRGGLEPINFQTAADQARELINSWVESQTNGIIRNVLQPSSVDSQTAMVLVNAIVFKGLWEKAFKDEDTQAMPFRVTEQESKPVQMMYQIGLFRVASMASEKMKILELPFASGTMSMLVLLPDEVSGLEQLESIINFEKLTEWTSSNVMEERKIKVYLPRMKMEEKYNLTSVLMAMGITDVFSSSANLSGISSAESLKISQAVHAAHAEINEAGREVVGSAEAGVDAASVSEEFRADHPFLFCIKHIATNAVLFFGRCVSP
**Q.** B1 was tested. Which “tumor protection against E.G7-OVA” value (E.G7-OVA tumor cells) did it give?
**A.** tumor protection

**Q.** What about the “Total Cells per Lymph Node” value ([2]; 20 μl of 0.5 mM in HBSS injected at two sites in abdominal skin, dibutyl phthalate and acetone topically 2 hours later, two days later) of the same molecule?
**A.** 8.8 × 10^6

**Q.** And the “Dendritic Cells per Lymph Node” value [2, 9]?
**A.** 137,456

**Q.** What about the “K^b:SIINFEKL^+ DC per LymphNode” value [2, 9] of the same molecule?
**A.** 61,424

**Q.** And the Enhancement ([2]; K^b:SIINFEKL+ DC versus HBSS injection)?
**A.** 31×

**Q.** What about the “increase in the number of antigen-bearing dendritic cells in the draining lymph nodes” value ([2]; injection followed by topical induction of migration, two days later) of the same molecule?
**A.** 31 fold

**Q.** What about the “antigen-bearing (K^b:SIINFEKL positive) dendritic cells in the draining lymph node” value [3] of the same molecule?
**A.** no detectable
